Target: T1, recombinant human 5-HT6 receptor (Homo sapiens, UniProt P50406)
T1 construct: expressed in transfected cells; membranes used
Assay: Radioligand binding studies, competition for [3H]LSD binding in HEK293 cell membranes
Conditions: [3H]LSD (5 nM), membranes of HEK293 cells stably expressing recombinant human 5-HT6 receptor, pH 7.4, 37° C., 60 min; read-out: 5-HT6 affinity values (pKi) (converted)
Experimental: The binding activity of compounds of this invention in vitro was determined as follows. Duplicate determinations of ligand affinity are made by competing for binding of [^3H]LSD in cell membranes derived from HEK293 cells stably expressing recombinant human 5-HT6 receptor.
All determinations were made in assay buffer containing 50 mM Tris-HCl, 10 mM MgSO4, 0.5 mM EDTA, 1 mM ascorbic acid, pH 7.4 at 37° C., in a 250 microliter reaction volume. Assay tubes containing [^3H] LSD (5 nM), competing ligand, and membrane were incubated in a shaking water bath for 60 min. at 37° C., filtered onto Packard GF-B plates (pre-soaked with 0.3% PEI) using a Packard 96 well cell harvester and washed 3 times in ice cold 50 mM Tris-HCl. Bound [^3H] LSD was determined as radioactive counts per minute using Packard TopCount.
Displacement of [3H]LSD from the binding sites was quantified by fitting concentration-binding data to a 4-parameter logistic equation:
[formula] where Hill is the Hill slope, [ligand] is the concentration of competing radioligand and IC50 is the concentration of radioligand producing half-maximal specific binding of radioligand. The specific binding window is the difference between the Bmax and the basal parameters.

T1 sequence (P50406 whole entry): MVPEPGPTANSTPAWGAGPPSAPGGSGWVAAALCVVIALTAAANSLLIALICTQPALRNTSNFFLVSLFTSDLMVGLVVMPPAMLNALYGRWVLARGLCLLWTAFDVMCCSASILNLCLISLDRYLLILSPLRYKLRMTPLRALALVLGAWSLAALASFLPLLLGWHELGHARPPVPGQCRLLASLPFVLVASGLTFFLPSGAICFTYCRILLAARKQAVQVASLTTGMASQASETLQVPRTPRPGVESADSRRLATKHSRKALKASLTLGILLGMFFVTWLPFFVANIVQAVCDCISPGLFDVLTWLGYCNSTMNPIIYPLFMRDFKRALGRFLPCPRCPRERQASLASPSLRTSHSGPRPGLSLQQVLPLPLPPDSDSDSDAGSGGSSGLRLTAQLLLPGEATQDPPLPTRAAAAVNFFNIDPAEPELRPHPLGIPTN

SMILES	Ki [nM]
O=S(=O)(c1ccccc1Cl)c1c[nH]c2c(OCCN3CCCC3)cccc12 [3-(2-Chloro-benzenesulfonyl)-7-(2-pyrrolidin-1-yl-ethoxy)-1H-indole]	3.98
O=S(=O)(c1ccc(Cl)c(Cl)c1)c1c[nH]c2c(OCCN3CCCC3)cccc12 [3-(3,4-Dichloro-benzenesulfonyl)-7-(2-pyrrolidin-1-yl-ethoxy)-1H-indole]	20
O=S(=O)(c1cccc(Cl)c1)c1c[nH]c2c(OCCN3CCCC3)cccc12 [3-(3-Chloro-benzenesulfonyl)-7-(2-pyrrolidin-1-yl-ethoxy)-1H-indole]	5.01
O=S(=O)(c1ccccc1)c1c[nH]c2c(OCCN3CCCC3)cccc12 [3-Benzenesulfonyl-7-(2-pyrrolidin-1-yl-ethoxy)-1H-indole]	20
